Reference: patent US20260092071A1, “COMPOUNDS AND COMPOSITIONS AS SMARCA2/4 DEGRADERS AND USES THEREOF” (REGENTS OF THE UNIVERSITY OF MICHIGAN, priority 2022, published 2026)

Assays:
Type in all cases: cell-based
SMARCA4 [1] = molecular target: T1, SMARCA4 (Homo sapiens, UniProt P51532); test: HiBiT assay for protein degradation, Hela SMARCA4-HiBiT cells (A series); parameters: fuse HiBiT to the carboxy terminus of SMARCA2 (Promega CS302365) or SMARCA4 (Promega CS3023225); host or cells: HeLa (CRISPR/Cas9 HiBiT knock-in); details: for DC50: read-out: SMARC A4 Hela HiBit DC50; for Dmax: read-out: SMARC A4 Hela HiBit Dmax(%)
Protocol: (§1) Hela cells were genetically modified via CRISPR/Cas9 to fuse HiBiT to the carboxy terminus of SMARCA2 (Promega CS302365) or SMARCA4 (Promega CS3023225). Cells were cultured in DMEM containing 10% FBS and 1% (Vol:Vol) penicillin-streptomycin. […] At the end of experiment, levels of SMARCA2 or SMARCA4 expression were assessed with Nano-Glo® HiBiT Lytic Detection Assay (Promega N3050). IC50 was obtained using the GraphPad Prism data analysis software.

SMARCA2 [2] = molecular target: T2, SMARCA2 (Homo sapiens, UniProt P51531); test: HiBiT assay for protein degradation, Hela SMARCA2-HiBiT cells (A series); parameters: Hela cells were genetically modified via CRISPR/Cas9 to fuse HiBiT to the carboxy terminus of SMARCA2; host or cells: HeLa (CRISPR/Cas9 HiBiT knock-in); details: for DC50: read-out: SMARC A2 Hela HiBit DC50; for Dmax: read-out: SMARC A2 Hela HiBit Dmax (%);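 on SMARC A2 Hela HiBit Dmax (%): 24 h compound treatment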
Protocol: as §1

SMARCA4 [3] = molecular target: T1, SMARCA4; test: HiBit assay in engineered HT1080 CRISPR knock-in cell, 6 hrs (B series), SMARCA4; details: 6 hrs incubation; for DC50: HT1080 CRISPR knock-in cells, read-out: SMARC A4 HT1080 HiBit DC50; for Dmax: HT-1080, HT1080 CRISPR knock-in cells, read-out: SMARC A4 HT1080 HiBit Dmax(%)
Procedure, shortened: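 Engineered HT1080 knock-in cells, 2000 cells/well, 6 hrs compound exposure, 37° C/5% CO2, 0.1% DMSO final. Lytic detection: LgBiT 1:100 plus HiBiT substrate 1:50 in lytic buffer, 10 min shake at RT, luminescence read.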

SMARCA2 [4] = molecular target: T2, SMARCA2; test: HiBit assay in engineered HT1080 CRISPR knock-in cell, 6 hrs (B series), SMARCA2; details: 6 hrs incubation; for DC50: HT1080 CRISPR knock-in cells, read-out: SMARC A2 HT1080 HiBit DC50; for Dmax: HT-1080, HT1080 CRISPR knock-in cells, read-out: SMARC A2 HT1080 HiBit Dmax (%)
Procedure, shortened: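 Protein abundance is measured in HiBiT-tagged HT1080 CRISPR knock-in cells after a 6 hr compound treatment (0.1% DMSO) by lytic Nano-Glo HiBiT luminescence.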

[5] = Hela SMARCA4-HiBiT cells, 24 hours treatment
[6] = Hela SMARCA2-HiBiT cells, 24 hours treatment

T2 sequence (P51531 whole entry): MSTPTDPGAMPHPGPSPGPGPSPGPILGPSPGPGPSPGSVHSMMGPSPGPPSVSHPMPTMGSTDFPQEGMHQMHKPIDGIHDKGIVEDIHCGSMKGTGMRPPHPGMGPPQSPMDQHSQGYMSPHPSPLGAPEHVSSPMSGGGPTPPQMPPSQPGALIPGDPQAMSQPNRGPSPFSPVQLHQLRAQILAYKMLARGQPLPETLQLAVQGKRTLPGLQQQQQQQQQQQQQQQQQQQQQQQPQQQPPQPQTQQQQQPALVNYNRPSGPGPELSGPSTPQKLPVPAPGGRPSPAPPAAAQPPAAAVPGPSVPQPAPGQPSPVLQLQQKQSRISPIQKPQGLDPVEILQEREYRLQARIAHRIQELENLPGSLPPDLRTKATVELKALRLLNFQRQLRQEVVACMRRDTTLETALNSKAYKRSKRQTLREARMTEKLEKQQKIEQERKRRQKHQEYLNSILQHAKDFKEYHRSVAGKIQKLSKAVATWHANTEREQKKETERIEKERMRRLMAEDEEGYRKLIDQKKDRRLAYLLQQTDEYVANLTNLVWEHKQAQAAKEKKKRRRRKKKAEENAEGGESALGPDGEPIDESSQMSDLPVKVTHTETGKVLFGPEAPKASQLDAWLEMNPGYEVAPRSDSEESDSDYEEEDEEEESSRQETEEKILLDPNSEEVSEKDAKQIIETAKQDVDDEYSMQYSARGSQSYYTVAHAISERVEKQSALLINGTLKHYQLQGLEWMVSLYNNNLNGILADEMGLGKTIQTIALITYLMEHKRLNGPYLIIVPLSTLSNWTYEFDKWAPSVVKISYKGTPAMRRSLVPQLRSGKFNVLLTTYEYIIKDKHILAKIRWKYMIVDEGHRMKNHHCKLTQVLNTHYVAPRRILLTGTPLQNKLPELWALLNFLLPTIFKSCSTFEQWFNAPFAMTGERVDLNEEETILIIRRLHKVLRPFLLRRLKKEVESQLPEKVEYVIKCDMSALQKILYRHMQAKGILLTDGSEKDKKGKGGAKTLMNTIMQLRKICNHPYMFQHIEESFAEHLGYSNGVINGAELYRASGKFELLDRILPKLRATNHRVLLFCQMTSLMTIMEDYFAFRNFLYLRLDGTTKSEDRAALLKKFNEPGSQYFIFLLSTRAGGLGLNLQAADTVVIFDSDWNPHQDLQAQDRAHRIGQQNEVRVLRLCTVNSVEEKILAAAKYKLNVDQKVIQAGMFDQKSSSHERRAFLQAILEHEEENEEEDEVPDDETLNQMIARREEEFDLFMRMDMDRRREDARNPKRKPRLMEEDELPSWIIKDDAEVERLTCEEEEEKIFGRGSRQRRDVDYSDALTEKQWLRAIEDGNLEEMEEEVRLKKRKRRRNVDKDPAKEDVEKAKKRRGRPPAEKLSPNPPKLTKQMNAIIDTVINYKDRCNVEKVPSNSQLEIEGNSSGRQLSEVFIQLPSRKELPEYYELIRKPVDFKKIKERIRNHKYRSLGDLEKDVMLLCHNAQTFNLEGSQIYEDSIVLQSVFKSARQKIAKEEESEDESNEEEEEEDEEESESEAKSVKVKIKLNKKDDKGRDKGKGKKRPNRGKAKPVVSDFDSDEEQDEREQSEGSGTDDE
T1 sequence (P51532 whole entry): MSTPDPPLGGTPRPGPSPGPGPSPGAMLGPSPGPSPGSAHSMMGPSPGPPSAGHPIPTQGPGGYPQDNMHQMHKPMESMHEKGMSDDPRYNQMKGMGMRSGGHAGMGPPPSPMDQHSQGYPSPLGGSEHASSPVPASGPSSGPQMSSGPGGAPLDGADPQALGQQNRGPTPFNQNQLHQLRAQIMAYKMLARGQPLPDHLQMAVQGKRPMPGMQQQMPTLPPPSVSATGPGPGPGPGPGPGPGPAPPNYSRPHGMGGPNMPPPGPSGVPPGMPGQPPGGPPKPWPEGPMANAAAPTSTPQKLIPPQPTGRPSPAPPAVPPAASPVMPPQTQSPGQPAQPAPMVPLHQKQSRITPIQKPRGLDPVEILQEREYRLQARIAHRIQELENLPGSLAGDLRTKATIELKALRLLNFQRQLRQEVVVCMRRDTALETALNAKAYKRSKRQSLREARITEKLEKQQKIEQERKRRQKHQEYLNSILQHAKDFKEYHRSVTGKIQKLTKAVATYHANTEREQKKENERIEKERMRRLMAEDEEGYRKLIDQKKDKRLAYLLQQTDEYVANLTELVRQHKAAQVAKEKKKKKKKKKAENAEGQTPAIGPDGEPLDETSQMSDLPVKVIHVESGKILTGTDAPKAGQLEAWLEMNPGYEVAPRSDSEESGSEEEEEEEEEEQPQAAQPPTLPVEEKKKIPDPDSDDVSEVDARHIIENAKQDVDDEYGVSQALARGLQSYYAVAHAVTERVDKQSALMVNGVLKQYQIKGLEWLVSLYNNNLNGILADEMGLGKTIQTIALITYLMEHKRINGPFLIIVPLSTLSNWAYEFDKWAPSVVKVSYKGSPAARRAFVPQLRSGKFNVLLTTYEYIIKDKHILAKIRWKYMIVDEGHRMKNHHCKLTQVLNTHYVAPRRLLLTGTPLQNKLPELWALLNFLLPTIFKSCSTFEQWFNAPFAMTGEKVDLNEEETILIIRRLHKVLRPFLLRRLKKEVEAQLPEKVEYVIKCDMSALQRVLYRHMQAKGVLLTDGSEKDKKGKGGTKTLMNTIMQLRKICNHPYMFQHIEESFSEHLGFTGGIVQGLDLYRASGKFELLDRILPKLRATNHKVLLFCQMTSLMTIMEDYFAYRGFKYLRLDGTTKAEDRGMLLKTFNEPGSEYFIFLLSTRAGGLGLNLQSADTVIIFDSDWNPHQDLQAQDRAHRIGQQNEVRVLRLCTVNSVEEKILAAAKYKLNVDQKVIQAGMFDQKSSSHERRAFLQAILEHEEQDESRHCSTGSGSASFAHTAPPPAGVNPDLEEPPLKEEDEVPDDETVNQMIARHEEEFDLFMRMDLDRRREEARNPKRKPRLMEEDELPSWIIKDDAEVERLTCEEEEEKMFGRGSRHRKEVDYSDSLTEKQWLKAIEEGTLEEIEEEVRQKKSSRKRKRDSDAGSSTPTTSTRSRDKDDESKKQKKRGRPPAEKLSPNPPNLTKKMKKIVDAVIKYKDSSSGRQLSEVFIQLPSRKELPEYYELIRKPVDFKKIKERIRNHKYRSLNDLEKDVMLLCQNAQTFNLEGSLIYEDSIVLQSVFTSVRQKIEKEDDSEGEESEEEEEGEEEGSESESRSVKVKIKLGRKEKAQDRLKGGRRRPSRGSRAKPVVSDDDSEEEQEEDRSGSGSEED

DC50 (SMARCA4 [1]; [5]) [nM]	Dmax (SMARCA4 [1]; [5]) [%]	DC50 (SMARCA2 [2]; [6]) [nM]	Dmax (SMARCA2 [2]; [6]) [%]	DC50 (SMARCA4 [3]) [nM]	Dmax (SMARCA4 [3]) [%]	DC50 (SMARCA2 [4]) [nM]	Dmax (SMARCA2 [4]) [%]	SMILES	Dmax (SMARCA4 [1]; HeLa) [%]	Dmax (SMARCA2 [2]; HeLa) [%]
100 to 500	70 to 90	< 100	> 90					Cc1ncsc1-c1ccc([C@H](CCCCN2CCC(c3ccc4c(c3)C3(CCCC3)c3nc(=O)c5c(Cl)cccc5n3-4)CC2)NC(=O)[C@@H]2C[C@@H](O)CN2C(=O)[C@@H](NC(=O)C2(F)CC2)C(C)(C)C)cc1 [Compound A1, (2S,4R)-N-((S)-5-(4-(4′-chloro-5′-oxo-5′H-spiro[cyclopentane-1,7′-indolo[1,2-a]quinazolin]-9′-yl)piperidin-1-yl)-1-(4-(4-methylthiazol-5-yl)phenyl)pentyl)-1-((S)-2-(1-fluorocyclopropane-1-carboxamido)-3,3-dimethylbutanoyl)-4-hydroxypyrrolidine-2-carboxamide]		
< 100	70 to 90	< 100	> 90					Cc1ncsc1-c1ccc([C@H](CCCCCN2CCC(c3ccc4c(c3)C3(CCCC3)c3nc(=O)c5c(Cl)cccc5n3-4)CC2)NC(=O)[C@@H]2C[C@@H](O)CN2C(=O)[C@@H](NC(=O)C2(F)CC2)C(C)(C)C)cc1 [Compound A2, (2S,4R)—N—((S)-6-(4-(4′-chloro-5′-oxo-5′H-spiro[cyclopentane-1,7′-indolo[1,2-a]quinazolin]-9′-yl)piperidin-1-yl)-1-(4-(4-methylthiazol-5-yl)phenyl)hexyl)-1-((S)-2-(1-fluorocyclopropane-1-carboxamido)-3,3-dimethylbutanoyl)-4-hydroxypyrrolidine-2-carboxamide]		
				100 to 500	< 50	< 100	70 to 90	Cc1nc(C)c(-c2ccc([C@H](C)NC(=O)[C@@H]3C[C@@H](O)CN3C(=O)[C@@H](c3cc(N4CCC(c5cccc6c5C(C)(C)c5nc(=O)c7c(Cl)cccc7n5-6)CC4)no3)C(C)C)cc2)s1 [Compound B167, (2S,4R)-1-(2-(3-(4-(4-chloro-7,7-dimethyl-5-oxo-5,7-dihydroindolo[1,2-a]quinazolin-8-yl)piperidin-1-yl)isoxazol-5-yl)-3-methylbutanoyl)-N-((S)-1-(4-(2,4-dimethylthiazol-5-yl)phenyl)ethyl)-4-hydroxypyrrolidine-2-carboxamide]		
				100 to 500	70 to 90	< 100	> 90	Cc1nc(C)c(-c2ccc([C@H](C)NC(=O)[C@@H]3C[C@@H](O)CN3C(=O)[C@@H](n3cc([C@H]4CC[C@H](CN5CCN(c6ccc7c(c6)-n6c(nc(=O)c8c(Cl)cccc86)C76CCCCC6)CC5)CC4)nn3)C(C)(C)C)cc2)s1 [Compound B168, (2S,4R)-1-((S)-2-(4-((1,4S)-4-((4-(4′-chloro-5′-oxo-5′H-spiro[cyclohexane-1,7′-indolo[1,2-a]quinazolin]-10′-yl)piperazin-1-yl)methyl)cyclohexyl)-1H-1,2,3-triazol-1-yl)-3,3-dimethylbutanoyl)-N-((S)-1-(4-(2,4-dimethylthiazol-5-yl)phenyl)ethyl)-4-hydroxypyrrolidine-2-carboxamide]		
				< 100	50 to 69	< 100	70 to 90	Cc1ncsc1-c1ccc([C@H](C)NC(=O)[C@@H]2C[C@@H](O)CN2C(=O)[C@@H](n2cc(C34CC(C(=O)N5CCC(c6ccc7c(c6)-n6c(nc(=O)c8c(Cl)cccc86)C76CCCCC6)CC5)(C3)C4)nn2)C(C)(C)C)cc1 [Compound B169]		

SMILES	DC50 (SMARCA4 [1]; [5]) [nM]	Dmax (SMARCA4 [1]; [5]) [%]	DC50 (SMARCA2 [2]; [6]) [nM]	Dmax (SMARCA2 [2]; [6]) [%]	DC50 (SMARCA4 [3]) [nM]	Dmax (SMARCA4 [3]) [%]	DC50 (SMARCA2 [4]) [nM]	Dmax (SMARCA2 [4]) [%]	Dmax (SMARCA4 [1]; HeLa) [%]	Dmax (SMARCA2 [2]; HeLa) [%]
Cc1ncsc1-c1ccc([C@H](CCCCCN2CCC(c3ccc4c(c3)C3(CCCCC3)c3nc(=O)c5c(Cl)cccc5n3-4)CC2)NC(=O)[C@@H]2C[C@@H](O)CN2C(=O)[C@@H](NC(=O)C2(F)CC2)C(C)(C)C)cc1 [Compound A3, (2S,4R)—N—((S)-6-(4-(4′-chloro-5′-oxo-5′H-spiro[cyclohexane-1,7′-indolo[1,2-a]quinazolin]-9′-yl)piperidin-1-yl)-1-(4-(4-methylthiazol-5-yl)phenyl)hexyl)-1-((S)-2-(1-fluorocyclopropane-1-carboxamido)-3,3-dimethylbutanoyl)-4-hydroxypyrrolidine-2-carboxamide]	< 100		< 100						> 90	> 90
